Experiments:
T lymphocyte = assay: Effects on generation of cytokines in ConA-activated spleen T lymphocyte (ELISA); format: cell-based; conditions: Balb/C mouse spleen cells, ConA 1 μg/ml, pre-treated 30 minutes before, 48 hours, 1, and 20 μM, FIG. 1
Experimental: First, in order to determine effects of K6PC-9P and K6PC-9 on generation of cytokines in T lymphocyte, spleen T lymphocyte was separated, and then treated with ConA for its activation. […] Accordingly, substances that increase the expression of the Th1 cytokines or suppress the expression of the Th2 cytokines may be useful to treat the atopic dermatitis. In this experiment, the K6PC-9P and K6PC-9 were evaluated for their control abilities to express the Th1 cytokine, interleukin-2, and the Th2 cytokine, interleukin-4.
The mouse spleen was extracted from a Balb/C mouse to separate splenocyte. The separated splenocyte was plated onto a 96-well plate in a density of 1×10^6 cells/ml. Then, T lymphocyte in the splenocyte was activated with ConA (1 μg/ml). The K6PC-9P and K6PC-9 were pre-treated 30 minutes before the treatment with ConA. 48 hours after the treatment with ConA, culture supernatant was collected, and subject to the ELISA (enzyme-linked immunosorbent assay). The ELISA used an ELISA kit from a R&D system, and performed experiments, as follows. However, the method specified later is described as one example, and the method is identical over the entire procedures, but densities of antibodies and standard sample may be slightly varied depending on the kinds of cytokines to be measured. A capture antibody was diluted to a density of 0.6 μg/ml, and transferred to an ELISA plate by 100 μl, and the plate was sealed and kept overnight at a room temperature. The capture antibody was discarded, and the plate was washed three times with a wash buffer (PBS containing 0.05% Tween 20 (pH 7.4)). 200 μl of a blocking buffer (PBS containing 1% BSA, 5% sucrose and 0.05% NaN) was put into plate wells, kept at a room temperature for 1 hour, and then washed three times with a wash buffer. The collected culture supernatant and the standard sample were prepared using a dilution buffer (TBS containing 0.1% BSA and 0.05% Tween 20), put into plate wells, and then kept at a room temperature for 2 hours. The plate was washed three times with a wash buffer, and a biotinylated detection antibody was diluted with a dilution buffer to a density of 200 ng/ml, and then put into the plate wells. 2 hours after the treatment, the plate was washed three times with a wash buffer, and streptavidin HRP was added to the plate, and then kept for 20 minutes. […] When the colors were suitably developed on the plate, the reaction was stopped with a stop solution (1M H2SO4), and its absorbance was measured at wavelengths of 450 nm and 540 nm. A standard curve was plotted using the standard absorbance obtained by subtracting a 540 nm absorbance value from a 450 nm absorbance value, and a density of cytokines to be measured was calculated using the standard absorbance of the culture supernatant.

NC/Nga mouse = assay: Atopic dermatitis caused by dust mite extract in NC/Nga mouse, ear thickness; format: in vivo; conditions: two kinds of dust mites (D. pteronyssinus, D. farinae), applied to ear dorsal surface 30 minutes before extract, 16 days, FIGS. 2 and 3
Description: Next, an animal model (NC/Nga mouse) where a mouse suffers from atopic dermatitis was used to evaluate an inflammation control effects of the K6PC-9P on the atopic dermatitis. The NC/Nga mouse is a mouse that spontaneously suffers from the dermatitis, and has been proven to be an animal model that is the most suitably used to treat atopic dermatitis. Therefore, The NC/Nga mouse has been widely used in the animal model to evaluate substances that are effective to treat the atopic dermatitis. For this experiment, a dust mite that is a representative inducer factor of the atopic dermatitis was applied to a NC/Nga mouse to induce the dermatitis.
The extract of dust mite (Dermatophagoides pteronyssinus, Dermatophagoides farinae) was commercially available from Woongbee Meditech Co. (Korea), and the dust mite extract was dissolved in 10 mg/ml of phosphate buffered saline (PBS) containing 0.5% Tween 20, and then used herein. NC/Nga mice were bred under conventional breeding conditions, and induced to develop into the atopic dermatitis. […] The […] and K6PC-9 were applied onto the ear dorsal surfaces of the mice 30 minutes before the application of the dust mite extract, and the efficiency of the therapeutic agent was evaluated for a level of an intercurrent disease by measuring a thickness of a mouse ear.

hairless mouse = assay: Suppression of epidermal proliferation in tape-stripping hyperplasia model, epidermal thickness (H&E); format: in vivo; conditions: tape stripping twice per day for 5 days, 1% applied twice per day for 3 days, compared to the control (vehicle)
Description: Effects on Suppression of Epidermal Proliferation Next, in order to evaluate effects of the K6PC-9P on the skin hyperplasia that is one of the representative skin disorders in the atopic dermatitis, a hyperplasia model where a mouse has overgrown cuticles was established by repeating a tape stripping procedure on a hairless mouse in the Examples according to the present invention. This hyperplasia model was established since the atopic skin has ill-balanced conditions in the epidermal proliferation and differentiation, and particularly has an increased epidermal proliferation level, but has a pattern in which mouse epidermis grows abnormally due to the reduced differentiation level. Accordingly, to recover this ill-balanced condition into a normal state may be considered to be an important point to treat the atopic dermatitis.
Hyperplasia in the back of a hairless mouse was induced by subjecting the tape stripping procedure twice per day for 5 days, and 1% K6PC-9P was applied to the hairless mouse twice per day for 3 days from the third day to fifth day of the induction of the atopic dermatitis. Then, mouse skin tissues were biopsied and fixed into a paraffin wax, and determined for epidermal thickness using a Hematoxylin & Eosin staining method. […]

## CCCCCCCC(=O)C(CCCCCC)C(=O)NCCO (stereo not shown) [K6PC-9, N-ethanol-2-hexyl-3-oxo-decanamide, reference compound]
T lymphocyte
  generation of the Th1 cytokine, interleukin-2: does not affect
  generation of the Th2 cytokine, interleukin-4: does not affect
NC/Nga mouse
  increase in the thickness of the mouse ear caused by dust mite extract: slight suppression effect

## CCCCCCCC(=O)C(CCCCCC)C(=O)NCCOP(=O)(O)O (stereo not shown) [K6PC-9P, N-(ethyl dihydrogenphosphate)-2-hexyl-3-oxo-decanamide]
T lymphocyte
  generation of the Th1 cytokine, interleukin-2: increases
  generation of the Th2 cytokine, interleukin-4: decreases
NC/Nga mouse
  increase in the thickness of the mouse ear caused by dust mite extract: significantly suppresses
Hairless mouse
  growth of the mouse epidermis (epidermal thickness): suppressed significantly

From patent publication US20080161272A1, “Ceramide derivatives, method for preparing the same, and therapeutic agent for treating atopic dermatitis comprising the ceramide derivatives” (Neopharm Co., Ltd., priority 2006, published 2008)
